pIC50: −log10 of the molar value.
Tests used:
[1] = target: High affinity nerve growth factor receptor (Homo sapiens, UniProt P04629); experiment: Inhibition of N-terminal hexa his tagged TRKA (485 to 795 residues) (unknown origin) expressed in baculovirus expression system Sf9 cells using Ser/Thr 06 as peptide substrate incubated for 1 hr in presence of ATP by FRET based Z-LYTE assay
[2] = target: High affinity nerve growth factor receptor (Homo sapiens, UniProt P04629, G667C); experiment: Inhibition of TRKA G667C mutant (unknown origin) expressed in baculovirus expression system Sf9 cells using Ser/Thr 06 as peptide substrate incubated for 1 hr in presence of ATP by FRET based Z-LYTE assay
Sequence of High affinity nerve growth factor receptor (Homo sapiens, UniProt P04629, G667C) (P04629 33-796 G667C limits assumed): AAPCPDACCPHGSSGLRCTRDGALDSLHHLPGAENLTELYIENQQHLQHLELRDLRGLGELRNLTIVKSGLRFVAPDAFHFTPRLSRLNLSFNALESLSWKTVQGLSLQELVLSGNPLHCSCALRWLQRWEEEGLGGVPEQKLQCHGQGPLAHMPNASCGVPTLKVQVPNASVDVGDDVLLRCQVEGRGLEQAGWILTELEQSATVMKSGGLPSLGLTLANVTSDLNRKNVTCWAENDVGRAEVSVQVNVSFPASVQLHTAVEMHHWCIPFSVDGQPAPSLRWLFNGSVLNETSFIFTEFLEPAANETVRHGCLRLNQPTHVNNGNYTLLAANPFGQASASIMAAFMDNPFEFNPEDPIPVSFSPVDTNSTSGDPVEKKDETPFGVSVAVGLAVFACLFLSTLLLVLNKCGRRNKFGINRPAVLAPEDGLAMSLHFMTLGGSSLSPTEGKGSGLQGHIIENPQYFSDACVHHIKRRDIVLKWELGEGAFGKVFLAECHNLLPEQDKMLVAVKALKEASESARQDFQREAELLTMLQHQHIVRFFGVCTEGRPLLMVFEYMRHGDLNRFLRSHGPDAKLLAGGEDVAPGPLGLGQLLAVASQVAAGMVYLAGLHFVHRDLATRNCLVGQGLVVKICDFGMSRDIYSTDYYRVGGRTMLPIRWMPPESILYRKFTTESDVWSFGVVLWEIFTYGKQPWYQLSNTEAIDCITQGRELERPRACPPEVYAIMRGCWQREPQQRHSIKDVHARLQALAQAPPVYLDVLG

[3] = target: High affinity nerve growth factor receptor (Homo sapiens, UniProt P04629, G595R); experiment: Inhibition of TRKA G595R mutant (unknown origin) expressed in baculovirus expression system Sf9 cells using Ser/Thr 06 as peptide substrate incubated for 1 hr in presence of ATP by FRET based Z-LYTE assay
Sequence of High affinity nerve growth factor receptor (Homo sapiens, UniProt P04629, G595R) (P04629 33-796 G595R limits assumed): as the sequence (P04629 33-796 G667C limits assumed) above, with G563R, C635G counted along it

[4] = tested on: BaF3; experiment: cells; conditions: Mus musculus, BaF3, 72 h
[5] = target: NT-3 growth factor receptor (Homo sapiens, UniProt Q16288); experiment: Inhibition of TRKC (unknown origin) using Ser/Thr 06 as peptide substrate incubated for 1 hr in presence of ATP by FRET based Z-LYTE assay
Sequence of NT-3 growth factor receptor (Q16288 whole entry, the tested form may be a part): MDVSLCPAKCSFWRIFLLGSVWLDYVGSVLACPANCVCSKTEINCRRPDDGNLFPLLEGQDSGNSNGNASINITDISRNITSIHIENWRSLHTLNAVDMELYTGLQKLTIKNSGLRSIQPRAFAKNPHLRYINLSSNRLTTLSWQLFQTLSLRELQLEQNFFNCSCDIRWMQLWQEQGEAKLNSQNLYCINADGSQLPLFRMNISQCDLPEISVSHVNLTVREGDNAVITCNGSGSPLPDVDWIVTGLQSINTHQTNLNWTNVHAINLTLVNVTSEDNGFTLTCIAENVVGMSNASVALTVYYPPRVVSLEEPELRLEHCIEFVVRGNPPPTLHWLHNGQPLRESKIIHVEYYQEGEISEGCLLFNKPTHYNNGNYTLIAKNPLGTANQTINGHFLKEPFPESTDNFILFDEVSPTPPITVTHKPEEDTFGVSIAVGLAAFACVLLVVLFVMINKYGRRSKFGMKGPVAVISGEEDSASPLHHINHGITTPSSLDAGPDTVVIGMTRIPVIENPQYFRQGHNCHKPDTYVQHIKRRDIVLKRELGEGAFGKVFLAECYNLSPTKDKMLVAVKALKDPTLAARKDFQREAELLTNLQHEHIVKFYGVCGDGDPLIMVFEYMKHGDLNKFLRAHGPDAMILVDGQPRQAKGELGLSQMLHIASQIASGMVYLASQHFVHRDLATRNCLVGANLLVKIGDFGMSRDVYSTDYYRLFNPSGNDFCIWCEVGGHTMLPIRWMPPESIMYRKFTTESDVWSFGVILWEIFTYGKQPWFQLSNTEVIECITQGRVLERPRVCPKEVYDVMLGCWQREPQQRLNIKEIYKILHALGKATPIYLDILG

[6] = tested on: BaF3; experiment: Antiproliferative activity against mouse BaF3 cells harbouring CD74-NTRK1 fusion protein incubated for 3 days by CCK8 method; conditions: BaF3, 72 h
[7] = tested on: BaF3; experiment: Antiproliferative activity against mouse BaF3 cells harbouring ETV6-NTRK3 fusion protein incubated for 3 days by CCK8 method; conditions: BaF3, 72 h
[8] = tested on: BaF3; experiment: Antiproliferative activity against mouse BaF3 cells harbouring CD74-[…] mutant fusion protein incubated for 3 days by CCK8 method; format: functional, cell-based; conditions: BaF3, 72 h
[9] = tested on: BaF3; experiment: Antiproliferative activity against mouse BaF3 cells harbouring TRKA-F589L fusion protein incubated for 3 days by CCK8 method; conditions: BaF3, 72 h
[10] = tested on: BaF3; experiment: Antiproliferative activity against mouse BaF3 cells harbouring CD74-NTRK1 G595R mutant fusion protein incubated for 3 days by CCK8 method; format: functional, cell-based; conditions: BaF3, 72 h
[11] = tested on: BaF3; experiment: Antiproliferative activity against mouse BaF3 cells harbouring wild type ETV6-TRKB incubated for 3 days by CCK8 method; conditions: BaF3, 72 h
[12] = tested on: BaF3; experiment: Antiproliferative activity against mouse BaF3 cells harbouring ETV6-TRKC F617L mutant incubated for 3 days by CCK8 method; conditions: BaF3, 72 h
[13] = tested on: BaF3; experiment: Antiproliferative activity against mouse BaF3 cells harbouring ETV6-TRKB F633L mutant incubated for 3 days by CCK8 method; conditions: BaF3, 72 h
[14] = tested on: BaF3; experiment: Antiproliferative activity against mouse BaF3 cells harbouring ETV6-TRKC G696C mutant incubated for 3 days by CCK8 method; conditions: BaF3, 72 h
[15] = tested on: BaF3; experiment: Antiproliferative activity against mouse BaF3 cells harbouring ETV6-TRKC G623E mutant incubated for 3 days by CCK8 method; conditions: BaF3, 72 h
[16] = tested on: BaF3; experiment: Antiproliferative activity against mouse BaF3 cells incubated for 3 days by CCK8 method; conditions: BaF3, 72 h
[17] = tested on: BaF3; experiment: Antiproliferative activity against mouse BaF3 cells harbouring CD74-TRKA G6678 mutant incubated for 3 days by CCK8 method; conditions: BaF3, 72 h
[18] = tested on: BaF3; experiment: cells; conditions: Mus musculus, BaF3, 72 h; remark: listed apart in the source
[19] = tested on: BaF3; experiment: Antiproliferative activity against mouse BaF3 cells harbouring ETV6-TRKC V601M mutant incubated for 3 days by CCK8 method; conditions: BaF3, 72 h
[20] = tested on: BaF3; experiment: Antiproliferative activity against mouse BaF3 cells harbouring ETV6-TRKB V617M mutant incubated for 3 days by CCK8 method; conditions: BaF3, 72 h
[21] = tested on: BaF3; experiment: Antiproliferative activity against mouse BaF3 cells harbouring ETV6-TRKC G696A mutant incubated for 3 days by CCK8 method; conditions: BaF3, 72 h
[22] = tested on: BaF3; experiment: Antiproliferative activity against mouse BaF3 cells harbouring ETV6-TRKC G623R mutant incubated for 3 days by CCK8 method; conditions: BaF3, 72 h
[23] = tested on: BaF3; experiment: Antiproliferative activity against mouse BaF3 cells harbouring ETV6-TRKC G6968 mutant incubated for 3 days by CCK8 method; conditions: BaF3, 72 h
[24] = tested on: BaF3; experiment: Antiproliferative activity against mouse BaF3 cells harbouring CD74-TRKA G667A mutant incubated for 3 days by CCK8 method; conditions: BaF3, 72 h
[25] = tested on: BaF3; experiment: Antiproliferative activity against mouse BaF3 cells harbouring ETV6-TRKB G639R mutant incubated for 3 days by CCK8 method; conditions: BaF3, 72 h
[26] = tested on: BaF3; experiment: Antiproliferative activity against mouse BaF3 cells harbouring ETV6-TRKB G709C mutant incubated for 3 days by CCK8 method; conditions: BaF3, 72 h
[27] = tested on: BaF3; experiment: cells; conditions: Mus musculus, BaF3, 72 h; remark: listed apart in the source
[28] = tested on: BaF3; experiment: Antiproliferative activity against mouse BaF3 cells harbouring CD74-TRKA V573M mutant incubated for 3 days by CCK8 method; conditions: BaF3, 72 h

Sequence of High affinity nerve growth factor receptor (Homo sapiens, UniProt P04629) (P04629 whole entry, the tested form may be a part): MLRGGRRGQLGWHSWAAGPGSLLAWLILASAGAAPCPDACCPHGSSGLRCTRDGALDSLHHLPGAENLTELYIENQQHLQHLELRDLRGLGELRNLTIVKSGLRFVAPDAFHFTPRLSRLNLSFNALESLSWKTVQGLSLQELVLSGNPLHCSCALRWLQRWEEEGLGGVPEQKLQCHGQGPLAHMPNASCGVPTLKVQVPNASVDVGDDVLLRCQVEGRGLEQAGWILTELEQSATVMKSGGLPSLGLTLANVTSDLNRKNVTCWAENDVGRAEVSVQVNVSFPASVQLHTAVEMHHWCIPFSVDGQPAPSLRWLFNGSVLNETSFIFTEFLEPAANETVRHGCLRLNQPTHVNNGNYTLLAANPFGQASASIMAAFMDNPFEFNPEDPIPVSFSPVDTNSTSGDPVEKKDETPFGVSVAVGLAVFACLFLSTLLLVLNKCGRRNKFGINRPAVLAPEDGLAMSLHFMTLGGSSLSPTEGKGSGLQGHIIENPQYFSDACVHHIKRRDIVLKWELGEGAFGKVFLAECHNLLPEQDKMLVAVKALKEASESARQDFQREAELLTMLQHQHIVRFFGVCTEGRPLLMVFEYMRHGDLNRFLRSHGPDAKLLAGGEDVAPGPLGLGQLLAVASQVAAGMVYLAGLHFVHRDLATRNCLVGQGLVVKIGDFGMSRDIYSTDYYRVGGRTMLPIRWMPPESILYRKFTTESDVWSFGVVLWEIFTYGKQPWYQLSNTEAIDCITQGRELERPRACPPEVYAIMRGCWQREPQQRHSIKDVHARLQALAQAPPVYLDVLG

| SMILES | pIC50 [1] | pIC50 [2] | pIC50 [3] | pIC50 [4] | pIC50 [5] | pIC50 [6] | pIC50 [7] | pIC50 [9] | pIC50 [10] | other results |
| --- | --- | --- | --- | --- | --- | --- | --- | --- | --- | --- |
| Cc1cn(-c2cc(NC(=O)c3cc4cc(c3C)C#Cc3cnc5ccc(nn35)NCCC(=O)NCCCCO4)cc(C(F)(F)F)c2)cn1 | 7.68 | 8.28 | 7.07 | – | – | – | – | – | – | – |
| Cc1cn(-c2cc(NC(=O)c3cc4cc(c3C)C#Cc3cnc5ccc(nn35)NCCC(=O)N(C)CCCCO4)cc(C(F)(F)F)c2)cn1 | 7.68 | 8.23 | 7.04 | – | – | – | – | – | – | – |
| Cc1c2cc(cc1C(=O)Nc1cc(C(C)(C)C)nn1-c1ccc(Cl)cc1)OCCCCCCCNC(=O)c1ccc3ncc(n3n1)C#C2 | 6.79 | 7.83 | < 6.00 | 7.99 | 7.87 | 6.99 | 7.15 | – | – | – |
| Cc1c2cc(cc1C(=O)Nc1cc(CN3CCN(C)CC3)cc(C(C)(C)C)c1)OCCCCCCCNC(=O)c1ccc3ncc(n3n1)C#C2 | 7.72 | 8.51 | 7.51 | 8.22 | 8.28 | 7.46 | 6.79 | 7.34 | 7.18 | pIC50 [8]: 7.92 |
| C[C@@H]1CCc2ncc(F)cc2[C@H]2CCCN2c2ccn3ncc(c3n2)C(=O)N1 [SELITRECTINIB] | – | – | – | 7.65 | – | 8.87 | 8.87 | 7.50 | 7.99 | pIC50 [8]: 7.58; pIC50 [11]: 8.63; pIC50 [12]: 7.76; pIC50 [13]: 7.45; pIC50 [14]: 7.32; pIC50 [15]: 8.13; pIC50 [16]: < 6.00; pIC50 [17]: 7.43; pIC50 [18]: < 6.00; pIC50 [19]: 7.51; pIC50 [20]: 7.58; pIC50 [21]: 8.38; pIC50 [22]: 8.29; pIC50 [23]: 7.96; pIC50 [24]: 8.47; pIC50 [25]: 7.39; pIC50 [26]: 7.38; pIC50 [27]: 6.37 |
| Cc1cn(-c2cc(NC(=O)c3cc4cc(c3C)C#Cc3cnc5ccc(nn35)C(=O)NCCCCCCCCO4)cc(C(F)(F)F)c2)cn1 | 7.20 | 8.12 | < 6.00 | 8.09 | 7.56 | 7.22 | 7.49 | – | – | – |
| Cc1c2cc(cc1C(=O)Nc1cc(N3CCC(N4CCOCC4)CC3)cc(C(F)(F)F)c1)OCCCCCCCNC(=O)c1ccc3ncc(n3n1)C#C2 | 7.58 | 8.47 | 6.96 | 8.42 | 8.07 | 7.29 | 7.53 | < 6.00 | 7.17 | – |
| C[C@H]1CNC(=O)c2cnn3ccc(nc23)N[C@H](C)c2cc(F)ccc2O1 [REPOTRECTINIB] | – | – | – | 7.81 | – | 8.86 | 8.72 | 8.79 | – | pIC50 [8]: 8.48; pIC50 [11]: 9.18; pIC50 [12]: 9.01; pIC50 [28]: 7.91; pIC50 [13]: 8.67; pIC50 [14]: 7.77; pIC50 [15]: 8.27; pIC50 [16]: 6.05; pIC50 [17]: 8.09; pIC50 [18]: 6.80; pIC50 [19]: 7.64; pIC50 [20]: 7.97; pIC50 [21]: 8.94; pIC50 [22]: 8.24; pIC50 [23]: 8.34; pIC50 [24]: 9.06; pIC50 [25]: 7.71; pIC50 [26]: 8.03; pIC50 [27]: 7.11 |
| Cc1cn(-c2cc(NC(=O)c3cc4cc(c3C)C#Cc3cnc5ccc(nn35)C(=O)NCCCCCO4)cc(C(F)(F)F)c2)cn1 | 7.24 | 6.90 | < 6.00 | 8.07 | 7.69 | 6.87 | 6.86 | – | – | – |
| Cc1c2cc(cc1C(=O)Nc1cc(CN3CCN(C)CC3)cc(C(F)(F)F)c1)OCCCCCCCNC(=O)c1ccc3ncc(n3n1)C#C2 | 7.80 | 8.50 | 7.26 | – | – | – | – | – | – | – |
| Cc1cn(-c2cc(NC(=O)c3cc4cc(c3C)C#Cc3cnc5ccc(nn35)C(=O)NCCCCCCO4)cc(C(F)(F)F)c2)cn1 | 7.29 | 7.91 | 6.25 | 7.77 | 8.02 | 6.38 | 6.27 | – | – | – |
| Cc1c2cc(cc1C(=O)Nc1cc(CN3CCCN(C)CC3)cc(C(F)(F)F)c1)OCCCCCCCNC(=O)c1ccc3ncc(n3n1)C#C2 | 7.99 | 8.55 | 7.41 | 8.90 | 8.39 | 8.17 | 7.32 | 8.06 | 7.31 | pIC50 [8]: 7.32 |
| Cc1c2cc(cc1C(=O)Nc1cc(Cl)cc(C(F)(F)F)c1)OCCCCCCCNC(=O)c1ccc3ncc(n3n1)C#C2 | 7.40 | 8.09 | < 6.00 | – | – | – | – | – | – | – |
| Cc1c2cc(cc1C(=O)Nc1ccc(CN3CCN(C)CC3)c(C(F)(F)F)c1)OCCCCCCCNC(=O)c1ccc3ncc(n3n1)C#C2 | 7.82 | 8.45 | < 6.00 | 8.65 | 7.94 | 7.49 | 5.52 | – | – | – |
| Cc1c2cc(cc1C(=O)Nc1cc(CN3CCN(C)CC3)cc(C(C)C)c1)OCCCCCCCNC(=O)c1ccc3ncc(n3n1)C#C2 | 8.11 | 7.77 | 7.97 | 8.41 | 8.55 | 7.69 | 6.98 | 7.49 | 7.37 | pIC50 [8]: 7.72 |
| Cc1c2cc(cc1NC(=O)Nc1ccc(Cl)c(C(F)(F)F)c1)OCCCCCCCNC(=O)c1ccc3ncc(n3n1)C#C2 | – | – | – | – | 7.37 | – | – | – | – | – |
| Cc1cn(-c2cc(NC(=O)c3cc4cc(c3C)C#Cc3cnc5ccc(nn35)NCCNC(=O)CCCCO4)cc(C(F)(F)F)c2)cn1 | 7.61 | 8.09 | < 6.00 | 7.39 | 8.15 | 6.57 | 6.69 | – | < 6.00 | – |
| Cc1cn(-c2cc(NC(=O)c3cc4cc(c3C)C#Cc3cnc5ccc(nn35)NCCN(C)C(=O)CCCCO4)cc(C(F)(F)F)c2)cn1 | 7.76 | 8.13 | 6.91 | 8.26 | 8.23 | 7.47 | 7.77 | – | 6.76 | – |
